Results taken from patent US20080095764A1, “Use of genetically-and epigenetically-altered protocadherins in methods of diagnosing, prognosing, and treating cancer” (THE TRUSTEES OF COLUMBIA UNIVERSITY IN THE CITY OF NEW YORK, priority 2004, published 2008).
“Also recorded” adds a separate entry of the source.

Tested on: PCDH8 expression in MDA-MB-435s cells
Experiment: 5-aza-deoxycytidine treatment, reactivation of PCDH8 expression (RT-PCR)
Format: cell-based, human
Conditions: MDA-MB-435s breast cancer cells with methylated PCDH8 promoter, 1 μM 5-aza-deoxycytidine for 72 hours, vs PBS control
Method: Cells were lysed in solution D, and RNA was separated by CsCl. RNA was resuspended in sodium acetate, and reprecipitated with ethanol. The pellet was dissolved in DEPC-treated water. RNA was primed with random hexamers, and reverse-transcribed with Superscript II reverse transcriptase (Invitrogen).
cDNA was synthesized from RNA primed with random hexamers (Amersham). Primers used for RT-PCR are below: DIAPH3: […] (SEQ ID NO:74, […] (SEQ ID NO:75). PCDH8: TGGCGGTGTGGAAAGGACA (SEQ ID NO:75), […] (SEQ ID NO:76). For reactivation studies, cells were treated with 1 μM 5-aza-deoxycytidine for 72 hours.
Cells were plated to 20% confluence, and treated with fresh 1 micromolar 5-aza-deoxycytidine for 72 h. RNA and cDNA were prepared from the cells and subjected to PCR.

Nc1ncn([C@H]2C[C@H](O)[C@@H](CO)O2)c(=O)n1 [5-aza-deoxycytidine]
PCDH8 expression after treatment: restored; also recorded: reactivated
